Results taken from ChEMBL document CHEMBL1201862, “PubChem BioAssay data set” (2004).
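All cell lines were grown in 96-well plates and treated with compound for 48 hours. GI50 is the concentration that inhibits growth by half.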 Calls of active or inactive are those of the source. Cut-off read from the data, not from the text of the source: active = GI50 up to about 1.1 µM and inactive = higher.

How the values were obtained:
Test in all cases: DTP human tumour cell line panel, 48 h
LOX IMVI = tested on: LOX IMVI
MDA-MB-435 = tested on: MDA-MB-435
SN12C = tested on: SN12C
NCI/ADR-RES = tested on: NCI/ADR-RES
OVCAR-8 = tested on: OVCAR-8
OVCAR-3 = tested on: OVCAR-3
EKVX = tested on: EKVX
U-251 = tested on: U-251
NCI-H522 = tested on: NCI-H522
OVCAR-5 = tested on: OVCAR-5
CCRF-CEM = tested on: CCRF-CEM
SF-268 = tested on: SF-268
MOLT-4 = tested on: MOLT-4
HCC 2998 = tested on: HCC 2998
MCF7 = tested on: MCF7
COLO 205 = tested on: COLO 205
SNB-19 = tested on: SNB-19
PC-3 = tested on: PC-3
A498 = tested on: A498
RPMI-8226 = tested on: RPMI-8226

Measured: GI50

COCOc1cc(OC)ccc1C/C=N/O
inactive: LOX IMVI > 100 µM | MDA-MB-435 > 100 µM | SN12C > 100 µM | NCI/ADR-RES > 100 µM | OVCAR-8 > 100 µM | OVCAR-3 > 100 µM | EKVX > 100 µM | U-251 > 100 µM | NCI-H522 > 100 µM | OVCAR-5 > 100 µM | CCRF-CEM > 100 µM | SF-268 > 100 µM | MOLT-4 > 100 µM | HCC 2998 > 100 µM | MCF7 > 100 µM | COLO 205 > 100 µM | SNB-19 > 100 µM | PC-3 > 100 µM

O=C(O)CN1CCN2CCOCCOCCN(CC1)CCN(CC(=O)O)CC2
inactive: A498 > 100 µM | LOX IMVI > 100 µM | MDA-MB-435 > 100 µM | SN12C > 100 µM | NCI/ADR-RES > 100 µM | OVCAR-8 > 100 µM | OVCAR-3 > 100 µM | EKVX > 100 µM | RPMI-8226 > 100 µM | U-251 > 100 µM | NCI-H522 > 100 µM | OVCAR-5 > 100 µM | CCRF-CEM > 100 µM | MCF7 > 100 µM | COLO 205 > 100 µM | SNB-19 > 100 µM | PC-3 > 100 µM

CCCCOCOc1ccccc1P1(=O)COc2ccccc2OC1
inactive: LOX IMVI > 100 µM | MDA-MB-435 > 100 µM | SN12C > 100 µM | NCI/ADR-RES > 100 µM | OVCAR-3 68.7 µM | EKVX > 100 µM | RPMI-8226 87.9 µM | U-251 > 100 µM | OVCAR-5 > 100 µM | CCRF-CEM > 100 µM | SF-268 > 100 µM | HCC 2998 > 100 µM | MCF7 75 µM | COLO 205 63 µM | SNB-19 > 100 µM | PC-3 55.3 µM

O=C1CC(C(=O)O)Cc2c(Br)ccc(O)c21 (stereo unspecified)
inactive: LOX IMVI > 100 µM | MDA-MB-435 > 100 µM | SN12C > 100 µM | NCI/ADR-RES > 100 µM | OVCAR-8 > 100 µM | OVCAR-3 > 100 µM | EKVX 78.2 µM | RPMI-8226 > 100 µM | U-251 > 100 µM | NCI-H522 > 100 µM | OVCAR-5 > 100 µM | CCRF-CEM > 100 µM | SF-268 > 100 µM | MOLT-4 > 100 µM | HCC 2998 > 100 µM | MCF7 > 100 µM | COLO 205 > 100 µM | SNB-19 > 100 µM | PC-3 > 100 µM

CCCCCCCCCCCC(=O)Oc1c(Cl)cc(Cl)c(OC(=O)C(=O)Oc2c(Cl)cc(Cl)c(OC(=O)CCCCCCCCCCC)c2Cl)c1Cl
inactive: LOX IMVI > 100 µM | MDA-MB-435 > 100 µM | SN12C > 100 µM | NCI/ADR-RES > 100 µM | OVCAR-8 > 100 µM | EKVX > 100 µM | RPMI-8226 > 100 µM | U-251 > 100 µM | NCI-H522 > 100 µM | OVCAR-5 > 100 µM | CCRF-CEM > 100 µM | SF-268 > 100 µM | MOLT-4 46.6 µM | MCF7 > 100 µM | COLO 205 > 100 µM | SNB-19 > 100 µM | PC-3 > 100 µM

O=C1CS(=O)(=O)C(c2cccc(Oc3ccccc3)c2)N1C1CC1 (stereo unspecified)
inactive: LOX IMVI 41.7 µM | MDA-MB-435 26.2 µM | SN12C 46.8 µM | NCI/ADR-RES 28.1 µM | OVCAR-8 38.5 µM | OVCAR-3 33 µM | EKVX 29 µM | U-251 32.5 µM | NCI-H522 38.7 µM | OVCAR-5 62.2 µM | CCRF-CEM 60.1 µM | SF-268 64.7 µM | MOLT-4 30.4 µM | HCC 2998 44 µM | MCF7 22.8 µM | COLO 205 25.2 µM | SNB-19 50.1 µM | PC-3 25.8 µM

C=CCN1C[C@H](C)N([C@H](c2ccc(C(=O)N(CC)CCO)cc2)c2cccc(OC)c2)C[C@H]1C
inactive: A498 76.6 µM | MDA-MB-435 > 100 µM | SN12C > 100 µM | NCI/ADR-RES > 100 µM | OVCAR-8 > 100 µM | OVCAR-3 12.3 µM | EKVX > 100 µM | RPMI-8226 40 µM | U-251 56 µM | NCI-H522 > 100 µM | OVCAR-5 > 100 µM | SF-268 > 100 µM | MOLT-4 51.5 µM | MCF7 92.9 µM | COLO 205 43.5 µM | SNB-19 > 100 µM | PC-3 38.6 µM

CC(C)(CO)NC(=O)c1cccs1
inactive: LOX IMVI > 100 µM | MDA-MB-435 > 100 µM | SN12C > 100 µM | NCI/ADR-RES > 100 µM | OVCAR-8 > 100 µM | OVCAR-3 > 100 µM | EKVX > 100 µM | RPMI-8226 > 100 µM | U-251 > 100 µM | NCI-H522 > 100 µM | OVCAR-5 > 100 µM | CCRF-CEM > 100 µM | SF-268 > 100 µM | MOLT-4 > 100 µM | HCC 2998 > 100 µM | MCF7 > 100 µM | COLO 205 > 100 µM | SNB-19 > 100 µM | PC-3 > 100 µM

CN1C(=O)C2(c3ccccc31)C1CC3C(CO1)C1C2C3(CO)CN1C#N (stereo unspecified)
inactive: LOX IMVI > 100 µM | MDA-MB-435 > 100 µM | SN12C > 100 µM | NCI/ADR-RES > 100 µM | OVCAR-8 > 100 µM | OVCAR-3 > 100 µM | EKVX > 100 µM | RPMI-8226 > 100 µM | U-251 > 100 µM | NCI-H522 > 100 µM | OVCAR-5 > 100 µM | CCRF-CEM > 100 µM | SF-268 > 100 µM | MOLT-4 > 100 µM | HCC 2998 > 100 µM | MCF7 > 100 µM | COLO 205 > 100 µM | SNB-19 > 100 µM | PC-3 > 100 µM

Cc1ccc(S(=O)(=O)NC(CCC(=O)NN)C(=O)NN)cc1 (stereo unspecified)
inactive: A498 > 100 µM | LOX IMVI > 100 µM | MDA-MB-435 > 100 µM | NCI/ADR-RES > 100 µM | OVCAR-8 > 100 µM | OVCAR-3 > 100 µM | EKVX > 100 µM | RPMI-8226 > 100 µM | U-251 > 100 µM | NCI-H522 > 100 µM | OVCAR-5 > 100 µM | CCRF-CEM > 100 µM | SF-268 > 100 µM | MOLT-4 > 100 µM | MCF7 > 100 µM | COLO 205 > 100 µM | SNB-19 > 100 µM | PC-3 > 100 µM

CCSc1[nH]c(Nc2nc(-c3ccccc3)n(-c3ccccc3)n2)c(C(N)=O)c1C(N)=O
inactive: LOX IMVI > 10 µM | MDA-MB-435 > 10 µM | SN12C > 10 µM | OVCAR-8 6.64 µM | EKVX > 10 µM | RPMI-8226 > 10 µM | CCRF-CEM > 10 µM | SF-268 > 10 µM | MOLT-4 > 10 µM | HCC 2998 > 10 µM | MCF7 > 10 µM | COLO 205 > 10 µM | PC-3 > 10 µM
